Experimental data: patent publication US11679107B2 (Eisai R&D Management Co., Ltd., priority 2018, dated 2023)
Like-named read-outs stand apart in the source and are kept apart here.

Legend:
SF3b complexes = biological target: T1, SF3b complexes (Homo sapiens, UniProt O75533+Q7RTV0); experiment: Scintillation proximity assay (SPA) with [3H]-labelled pladienolide probe; format: binding; details: SF3B1 (WT); geometric mean; read-out: SPA-ATS GMean IC50 (nM) SF3B1 (WT)
T1 construct: endogenous in cells; host or cells: Nuclear extracts; A HeLa S3 extract preparation is described for the in vitro splicing assay
Summary of the method: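 SF3b complexes captured from nuclear extracts on anti-SF3B1 antibody SPA beads; test compounds pre-incubated 30 min before 2.5 nM [3H]-pladienolide probe added, then 30 min incubation. Bound probe read by scintillation; values from non-linear regression of concentration–response curves.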

[1] = test system: Panc 05.04 cells (SF3b K700E mutant); experiment: Cell proliferation and viability, CellTiter-Glo, 72 hours; format: cell-based; details: for GI50: geometric mean
Summary of the method: (§1)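 RPMI-1640/10% FBS (Panc: + insulin, FBS 15%); 11-pt half-log dose, ~10 μM-100 pM, 0.1% DMSO; 37° C, 5% CO2; ATP luminescence read; % inhibition vs T0 and vehicle, −100% cidal to 100% uninhibited growth.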

[2] = test system: NCI-H1568 cells (high MCL1); experiment: as above; format: cell-based; details: for GI50: geometric mean
Summary of the method: as §1

[3] = test system: Ad2 variant pre-mRNAs spliced in HeLa S3 nuclear extracts; experiment: In vitro splicing assay (IVS), RT-qPCR of spliced product; format: biochemical; details: for IC50: geometric mean; for Ratio Ad2.1/2.2: ratio of IVS IC50 Ad2.1 to Ad2.2
Summary of the method: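 Read-out is one-step TaqMan RT-qPCR of spliced Ad2 mRNA with Ftz as reference, normalized to DMSO and fit by non-linear regression. Reactions held HeLa S3 nuclear extract, 2 ng Ad2-derived pre-mRNA and test compound, with 15 min preincubation. Splicing was started with ATP-containing activation buffer and run 90 min at 30 °C.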

[4] = PANC0504.1 cells, 72 h, −100% cidal, 0% static, 100% maximal growth
[5] = Panc 05.04, read-out: CTGlo-ATS GMean GI50 (nM) 72 h PANC0504.1, PANC0504.1 cells, 72 h
[6] = NCI-H1568, read-out: CTGlo-ATS GMean GI50 (nM) 72 h NCIH1568.1, NCIH1568.1 cells, 72 h
[7] = NCIH1568.1 cells, 72 h, −100% cidal, 0% static, 100% maximal growth
[8] = Ad2.1 pre-mRNA substrate, read-out: qPCR-IVS-ATS GMean IC50 (nM) Ad2.1
[9] = Ad2.2 pre-mRNA substrate, read-out: qPCR-IVS-ATS GMean IC50 (nM) Ad2.2
[10] = 72 h, PANC0504.1, -100% = cidal, 0% = static, 100% = uninhibited growth
[11] = 72 h, NCIH1568.1, -100% = cidal, 0% = static, 100% = uninhibited growth
[12] = Panc 05.04, 72 h, read-out: CTGlo-ATS GMean GI50 (nM) 72 h PANC0504.1, PANC0504.1 cells, 72 h
[13] = NCI-H1568, 72 h, read-out: CTGlo-ATS GMean GI50 (nM) 72 h NCIH1568.1, NCIH1568.1 cells, 72 h

SMILES | IC50 (SF3b complexes) [nM] | CTGlo-ATS Mean MinResponse % 72 h PANC0504.1 [1, 4] [%] | GI50 [1, 5] [nM] | GI50 [2, 6] [nM] | CTGlo-ATS Mean MinResponse % 72 h NCIH1568.1 [2, 7] [%] | IC50 [3, 8] [nM] | IC50 [3, 9] [nM] | CTGlo-ATS Mean MinResponse % 72 h PANC0504.1 [1, 10] [%] | GI50 ([1]; Panc 05.04, read-out: CTGlo-ATS GMean GI50 (nM) 72 h PANC0504.1, 72 h, PANC0504.1) [nM] | CTGlo-ATS Mean MinResponse % 72 h NCIH1568.1 [2, 11] [%] | GI50 ([2]; NCI-H1568, read-out: CTGlo-ATS GMean GI50 (nM) 72 h NCIH1568.1, 72 h, NCIH1568.1) [nM] | Ratio Ad2.1/2.2 [3] | GI50 ([1]; Panc 05.04, 72 h, read-out: CTGlo-ATS GMean GI50 (nM) 72 h PANC0504.1, 72 h, PANC0504.1) [nM] | GI50 ([2]; NCI-H1568, 72 h, read-out: CTGlo-ATS GMean GI50 (nM) 72 h NCIH1568.1, 72 h, NCIH1568.1) [nM] | GI50 [1, 12] [nM] | GI50 [2, 13] [nM]
CN[C@@H]1CCN(c2cc(F)cc(/C=C(\C)[C@H]3OC(=O)C[C@H](O)CC[C@H](C)[C@@H](OC(=O)N4CCN(C)CC4)/C=C/[C@@H]3C)c2)C1 [Compound 45] | 15.9 | −92.006 | 35.7 | 18.9 | −98.435 | 36.3 | 18.3 | – | – | – | – | – | – | – | – | –
C/C(=C\c1cccc(S(=O)(=O)N2CCN(C)CC2)c1)[C@H]1OC(=O)C[C@H](O)CC[C@H](C)[C@@H](OC(=O)N2CCN(C)CC2)/C=C/[C@@H]1C [Compound 211, [(2S,3S,4E,6R,7S,10R)-10-hydroxy-3,7-dimethyl-2-[(E)-1-[3-(4-methylpiperazin-1-yl)sulfonylphenyl]prop-1-en-2-yl]-12-oxo-1-oxacyclododec-4-en-6-yl] 4-methylpiperazine-1-carboxylate] | 11.9 | – | – | – | – | 651 | 83.4 | −91.820 | 47.6 | −52.358 | 60.6 | 7.806 | – | – | – | –
C/C(=C\c1cccc(S(=O)(=O)N2CCCC2)c1)[C@H]1OC(=O)C[C@H](O)CC[C@H](C)[C@@H](OC(=O)N2CCN(C)CC2)/C=C/[C@@H]1C [Compound 214, [(2S,3S,4E,6R,7S,10R)-10-hydroxy-3,7-dimethyl-12-oxo-2-[(E)-1-(3-pyrrolidin-1-ylsulfonylphenyl)prop-1-en-2-yl]-1-oxacyclododec-4-en-6-yl] 4-methylpiperazine-1-carboxylate] | 2.3 | – | – | – | – | 3920 | 19.2 | −91.986 | – | −48.793 | – | 204.217 | 3.29 | 6.37 | – | –
C/C(=C\c1cc(F)cc(N(C)C2CCS(=O)(=O)CC2)c1)[C@H]1OC(=O)C[C@H](O)CC[C@H](C)[C@@H](OC(=O)N2CCN(C)CC2)/C=C/[C@@H]1C [Compound 172] | 5.58 | −88.455 | 17.9 | 8.72 | −74.177 | 22.6 | 15.4 | – | – | – | – | – | – | – | – | –
C/C(=C\c1cc(F)cc(N2CCOCC2)c1)[C@H]1OC(=O)C[C@H](O)CC[C@H](C)[C@@H](OC(=O)N2CCN(C)CC2)/C=C/[C@@H]1C [Compound 3] | 1.74 | −87.809 | – | – | −78.460 | 18.6 | 10.3 | – | – | – | – | – | – | – | 2.96 | 2.42
CNC(=O)[C@H]1CN(c2cc(F)cc(/C=C(\C)[C@H]3OC(=O)C[C@H](O)CC[C@H](C)[C@@H](OC(=O)N4CCN(C)CC4)/C=C/[C@@H]3C)c2)CCO1 [Compound 78] | 1.76 | −93.916 | 7.33 | 2.5 | −74.454 | 24.3 | 13.8 | – | – | – | – | – | – | – | – | –
C/C(=C\c1cc(F)cc(N(C)C)c1)[C@H]1OC(=O)C[C@H](O)CC[C@H](C)[C@@H](OC(=O)N2CCN(C)CC2)/C=C/[C@@H]1C [Compound 29] | 5.6 | −90.429 | 34.7 | 53.8 | −19.404 | > 25000 | 90.7 | – | – | – | – | – | – | – | – | –
C/C(=C\c1cc(N2CCOCC2)ccc1F)[C@H]1OC(=O)C[C@H](O)CC[C@H](C)[C@@H](OC(=O)N2CCN(C)CC2)/C=C/[C@@H]1C [Compound 7] | 2.88 | −89.436 | 8.96 | 15.1 | −56.359 | 1250 | 25.1 | – | – | – | – | – | – | – | – | –
C/C(=C\c1cc(F)cc(N2CCO[C@@H](C)C2)c1)[C@H]1OC(=O)C[C@H](O)CC[C@H](C)[C@@H](OC(=O)N2CCN(C)CC2)/C=C/[C@@H]1C [Compound 69] | 3.83 | −86.274 | – | – | −76.018 | 36.7 | 20.9 | – | – | – | – | – | – | – | 7.48 | 4.04
C/C(=C\c1cc(F)cc(N2CCOCC2)c1)[C@H]1OC(=O)C[C@H](O)CC[C@H](C)[C@@H](OC(=O)N2CCN(C(C)(C)C)CC2)/C=C/[C@@H]1C [Compound 25] | 4.94 | −88.378 | 20.5 | 20.6 | −49.158 | 430 | 46.4 | – | – | – | – | – | – | – | – | –
CN[C@H]1CCN(c2cc(F)cc(/C=C(\C)[C@H]3OC(=O)C[C@H](O)CC[C@H](C)[C@@H](OC(=O)N4CCN(C)CC4)/C=C/[C@@H]3C)c2)C1 [Compound 39] | 26 | −89.747 | 50.1 | 45.6 | −97.412 | 63.1 | 32 | – | – | – | – | – | – | – | – | –
C/C(=C\c1cc(F)cc(N2CCN(C(=O)c3cn(C)cn3)CC2)c1)[C@H]1OC(=O)C[C@H](O)CC[C@H](C)[C@@H](OC(=O)N2CCN(C)CC2)/C=C/[C@@H]1C [Compound 120] | 3.97 | −78.098 | – | – | −75.164 | 25.3 | 26.5 | – | – | – | – | – | – | – | 9.42 | 11.2
C/C(=C\c1cc(F)cc(N2C[C@@H](C)O[C@@H](C)C2)c1)[C@H]1OC(=O)C[C@H](O)CC[C@H](C)[C@@H](OC(=O)N2CCC(N3CCCCC3)CC2)/C=C/[C@@H]1C [Compound 16] | 57 | −85.810 | 41.5 | 59.1 | −88.977 | 100 | 39.2 | – | – | – | – | – | – | – | – | –
C/C(=C\c1cc(F)cc(N2CCC[C@H]2C)c1)[C@H]1OC(=O)C[C@H](O)CC[C@H](C)[C@@H](OC(=O)N2CCN(C)CC2)/C=C/[C@@H]1C [Compound 41] | 8.26 | −82.009 | – | – | −77.375 | 221 | 39.2 | – | – | – | – | – | – | – | 15.8 | 21.4
